Measurements from patent US9446039B2, “Aminoheteroaryl compounds as MTH1 inhibitors” (CEMM—FORSCHUNGSZENTRUM FÜR MOLEKULARE MEDIZIN GMBH, priority 2012, dated 2016).

Columns and labels:
Assay type in all cases: binding
[1] = target: T1, SW480 colon carcinoma cells lysate proteins (Homo sapiens, UniProt O00232); details: PreyGene PSMD12
T1 sequence (O00232 1-456): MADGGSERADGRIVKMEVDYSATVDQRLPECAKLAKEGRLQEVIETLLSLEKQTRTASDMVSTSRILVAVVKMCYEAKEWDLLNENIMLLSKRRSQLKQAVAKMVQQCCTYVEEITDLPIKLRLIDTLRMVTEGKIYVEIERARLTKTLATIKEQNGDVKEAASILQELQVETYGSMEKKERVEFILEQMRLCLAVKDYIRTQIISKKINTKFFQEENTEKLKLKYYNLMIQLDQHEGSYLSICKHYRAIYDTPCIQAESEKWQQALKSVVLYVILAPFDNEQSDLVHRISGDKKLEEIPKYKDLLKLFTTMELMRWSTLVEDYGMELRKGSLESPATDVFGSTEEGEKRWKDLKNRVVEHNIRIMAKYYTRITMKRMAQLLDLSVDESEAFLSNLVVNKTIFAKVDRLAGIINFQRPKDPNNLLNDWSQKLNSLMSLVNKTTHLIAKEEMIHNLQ

[2] = target: T2, SW480 colon carcinoma cells lysate proteins (Homo sapiens, UniProt P04264); details: PreyGene KRT1
T2 sequence (P04264 1-644): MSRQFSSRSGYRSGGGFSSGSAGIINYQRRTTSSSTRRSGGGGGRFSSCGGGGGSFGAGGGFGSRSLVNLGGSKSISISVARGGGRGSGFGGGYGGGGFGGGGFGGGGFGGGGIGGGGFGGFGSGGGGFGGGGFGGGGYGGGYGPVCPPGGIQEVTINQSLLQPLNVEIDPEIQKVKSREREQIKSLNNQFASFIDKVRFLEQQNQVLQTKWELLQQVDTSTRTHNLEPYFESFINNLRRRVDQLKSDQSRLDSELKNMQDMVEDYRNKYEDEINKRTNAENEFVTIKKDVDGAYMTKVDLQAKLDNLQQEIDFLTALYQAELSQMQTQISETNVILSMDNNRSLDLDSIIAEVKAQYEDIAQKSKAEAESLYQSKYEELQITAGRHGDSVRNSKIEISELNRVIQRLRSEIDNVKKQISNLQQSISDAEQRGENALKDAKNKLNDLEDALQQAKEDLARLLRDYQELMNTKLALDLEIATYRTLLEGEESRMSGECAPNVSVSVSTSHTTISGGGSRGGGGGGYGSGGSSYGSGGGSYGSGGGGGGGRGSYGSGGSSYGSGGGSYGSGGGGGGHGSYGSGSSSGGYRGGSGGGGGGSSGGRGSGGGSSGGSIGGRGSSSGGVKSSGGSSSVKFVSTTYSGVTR

[3] = target: SW480 colon carcinoma cells lysate proteins (Homo sapiens, UniProt P67936); details: PreyGene TPM4
[4] = target: T3, SW480 colon carcinoma cells lysate proteins (Homo sapiens, UniProt Q04837); details: PreyGene SSBP1; SW480 cells
T3 sequence (Q04837 17-148): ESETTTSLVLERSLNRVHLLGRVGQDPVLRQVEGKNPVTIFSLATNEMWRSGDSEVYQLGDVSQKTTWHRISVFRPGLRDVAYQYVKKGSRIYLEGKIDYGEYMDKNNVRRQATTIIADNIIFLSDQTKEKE

[5] = target: T4, SW480 colon carcinoma cells lysate proteins (Homo sapiens, UniProt Q15691); details: PreyGene MAPRE1
T4 sequence (Q15691 1-268): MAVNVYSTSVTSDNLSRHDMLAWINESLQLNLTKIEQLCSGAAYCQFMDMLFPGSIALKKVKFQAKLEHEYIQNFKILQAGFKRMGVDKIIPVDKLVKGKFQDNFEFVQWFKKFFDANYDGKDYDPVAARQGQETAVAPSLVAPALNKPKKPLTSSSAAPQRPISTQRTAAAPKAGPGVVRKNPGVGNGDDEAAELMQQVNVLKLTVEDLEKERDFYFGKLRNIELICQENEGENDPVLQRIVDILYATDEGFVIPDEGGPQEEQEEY

[6] = target: SW480 colon carcinoma cells lysate proteins (Homo sapiens, UniProt Q9BVA1); details: PreyGene TUBB2B; SW480 cells
[7] = target: T5, SW480 colon carcinoma cells lysate proteins (Homo sapiens, UniProt Q9H9Z2); details: PreyGene LIN28A
T5 sequence (Q9H9Z2 1-209): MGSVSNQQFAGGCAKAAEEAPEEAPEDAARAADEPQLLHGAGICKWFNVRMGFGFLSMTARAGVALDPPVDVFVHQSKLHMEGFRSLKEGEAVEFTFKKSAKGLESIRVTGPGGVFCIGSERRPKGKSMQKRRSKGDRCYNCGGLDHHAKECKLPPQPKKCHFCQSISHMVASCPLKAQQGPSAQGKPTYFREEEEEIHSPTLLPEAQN

Sequence of SW480 colon carcinoma cells lysate proteins (Homo sapiens, UniProt Q9BVA1) (Q9BVA1 whole entry): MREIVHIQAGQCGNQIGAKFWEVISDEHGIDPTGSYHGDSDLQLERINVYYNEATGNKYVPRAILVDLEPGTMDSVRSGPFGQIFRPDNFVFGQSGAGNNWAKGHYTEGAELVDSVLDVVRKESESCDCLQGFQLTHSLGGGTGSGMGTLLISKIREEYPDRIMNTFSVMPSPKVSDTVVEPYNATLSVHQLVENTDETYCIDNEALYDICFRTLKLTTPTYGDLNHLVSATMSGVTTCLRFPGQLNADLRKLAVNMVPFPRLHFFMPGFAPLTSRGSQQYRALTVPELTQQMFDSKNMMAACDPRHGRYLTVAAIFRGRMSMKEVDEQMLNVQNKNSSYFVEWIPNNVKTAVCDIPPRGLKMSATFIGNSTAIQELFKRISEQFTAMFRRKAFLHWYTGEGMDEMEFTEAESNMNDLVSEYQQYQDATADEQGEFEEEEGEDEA
Sequence of SW480 colon carcinoma cells lysate proteins (Homo sapiens, UniProt P67936) (P67936 whole entry): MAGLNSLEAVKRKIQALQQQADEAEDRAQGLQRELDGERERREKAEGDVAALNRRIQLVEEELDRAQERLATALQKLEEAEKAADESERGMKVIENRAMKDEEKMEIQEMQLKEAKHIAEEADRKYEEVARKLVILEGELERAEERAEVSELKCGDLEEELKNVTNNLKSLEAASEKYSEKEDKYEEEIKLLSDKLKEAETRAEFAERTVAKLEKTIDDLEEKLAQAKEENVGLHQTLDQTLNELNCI

SMILES: C[C@H](Oc1cc(-c2cnn(C3CCNCC3)c2)cnc1N)c1c(Cl)ccc(F)c1Cl [(5)-crizotinib]
- AvgP [1]: 0.35
- SC.Exp. 1-1 [1]: 2
- SC.Exp. 1-2 [1]: 2
- SC.Exp. 2-1 [1]: 0
- SC.Exp. 2-2 [1]: 0
- Sum (SC.Exp.) [1]: 4
- AvgP [2]: 0.3569
- SC.Exp. 1-1 [2]: 26
- SC.Exp. 1-2 [2]: 24
- SC.Exp. 2-1 [2]: 5
- SC.Exp. 2-2 [2]: 3
- Sum (SC.Exp.) [2]: 58
- AvgP [3]: 0.4193
- SC.Exp. 1-1 [3]: 5
- SC.Exp. 1-2 [3]: 2
- SC.Exp. 2-1 [3]: 0
- SC.Exp. 2-2 [3]: 0
- Sum (SC.Exp.) [3]: 7
- AvgP [4]: 0
- SC.Exp. 1-1 [4]: 1
- SC.Exp. 1-2 [4]: 1
- SC.Exp. 2-1 [4]: 0
- SC.Exp. 2-2 [4]: 0
- SC.Exp. Sum [4]: 2
- AvgP [5]: 0.4084
- SC.Exp. 1-1 [5]: 2
- SC.Exp. 1-2 [5]: 3
- SC.Exp. 2-1 [5]: 0
- SC.Exp. 2-2 [5]: 0
- Sum (SC.Exp.) [5]: 5
- AvgP [6]: 0
- SC.Exp. 1-1 [6]: 4
- SC.Exp. 1-2 [6]: 3
- SC.Exp. 2-1 [6]: 1
- SC.Exp. 2-2 [6]: 2
- SC.Exp. Sum [6]: 10
- AvgP [7]: 0.3021
- SC.Exp. 1-1 [7]: 2
- SC.Exp. 1-2 [7]: 2
- SC.Exp. 2-1 [7]: 2
- SC.Exp. 2-2 [7]: 0
- Sum (SC.Exp.) [7]: 6
